According to patent publication US6673801B1, “Dihydroxyhexanoic acid derivatives” (Pfizer Inc., priority 1998, dated 2004):

Key:
[1] = Kinetic solubility assay (turbidometric, phosphate buffer); conditions: pH 7, aqueous buffer, kinetic from dmso stock
Procedure: (§1) Solubility of the compounds is determined at four fixed concentrations and is expressed as μg/mL. Solubility or insolubility is measured in phosphate buffer using a turbidometric plate reader by automated micro addition of a compound predissolved in DMSO. Solubilities at 50, 100, 200 and 250 or 100, 200, 400 and 500 micrograms/mL can be determined by predissolving 1 mg of compound in sufficient DMSO to reach an initial concentration of 20 or 40 μg/uL.
(§2) A spectramax 250 UV transparent 96 well microplate is filled with 200 uL of Stock pH 7 phosphate buffer solution. A series of 25 absorption readings in a 5 by 5 matrix at a wavelength of 492 nm are taken for each well in the microplate containing pH buffer alone. This scan is to be used as a “blank”, and the raw optical dispersion (OD) values are used as a baseline.
(§3) Compounds in DMSO solution are then added (column wise) down the microplate. Up to twenty four samples are assayed with each compound being placed in four contiguous wells column wise. Each column of the microplate contains four concentrations of compound in ascending concentration and ascending row order (A-D), or row (E-H). […] The plate is then shaken for 20 minutes to allow for mixing.
(§4) After compound addition, a second scan consisting of a series of 25 absorption readings in a 5 by 5 matrix are taken for each well in the microplate at the same wavelength as the first blank scan. The raw compound OD values for each reading in the 5 by 5 matrix are subtracted from the corresponding “blank” values in the 5 by 5 matrix to provide the raw solubility OD data.
(§5) Data obtained from the Tecan SLT Spectra Image Reader is then analyzed using a Visual Basic computer program (or can be calculated manually according to methods well known to those of ordinary skill in the art), so as to provide solubility data for each compound.

[2] = pH 7
Procedure: as §1, §2, §3, §4, §5

| solubility at 20 min [1] | melting point | Solubility [2] | SMILES |
| --- | --- | --- | --- |
| > 200 µg/mL | 150 to 153 °C |  | CC(C)(O)CC[C@H](C[C@H](O)[C@H](Cc1ccc(F)c(F)c1)NC(=O)c1cnc2ccccc2n1)C(=O)NO [Example 10, Quinoxaline-2-carboxylic acid [1(S)-(3,4-difluoro-benzyl)-2(S),7-dihydroxy-4(R)-hydroxycarbamoyl-7-methyloctyl]-amide] |
| < 5 µg/mL |  |  | CNC(=O)[C@H](CC(C)C)C[C@H](O)[C@H](Cc1ccc2ccccc2c1)NC(=O)c1cnc2ccccc2n1 [Example 127, quinoxaline-2-carboxylic acid (2(S)-hydroxy-6-methyl-4(R)-methylcarbamoyl-1(S)-naphthalen-2-ylmethyl-heptyl)-amide, reference compound] |
| > 250 µg/mL |  |  | CC(C)(O)CC[C@H](C[C@H](O)[C@H](Cc1cccs1)NC(=O)c1cnc2ccccc2n1)C(N)=O [Example 1, QUINOXALINE-2-CARBOXYLIC ACID (4(R)-CARBAMOYL-2(S),7-DIHYDROXY-7-METHYL-1(S)-THIOPHEN-2-YLMETHYL-OCTYL)-AMIDE] |
| > 250 µg/mL |  |  | CC(C)(O)CC[C@H](C[C@H](O)[C@H](Cc1ccccc1Cl)NC(=O)c1cnc2ccccc2n1)C(N)=O [Example 7, Quinoxaline-2-carboxylic acid [4(R)-carbamoyl-1(S)-(2-chloro-benzyl)-2(S),7-dihydroxy-7-methyl-octyl]-amide] |
| > 250 µg/mL | 110 to 120 °C |  | CC(C)(O)CC[C@H](C[C@H](O)[C@H](Cc1ccc(F)c(F)c1)NC(=O)c1cnc2ccccc2n1)C(N)=O [Example 11, Quinoxaline-2-carboxylic acid [4(R)-carbamoyl-1(S)-(3,4-difluoro-benzyl)-2(S),7-dihydroxy-7-methyl-octyl]-amide] |
| > 250 µg/mL | 147 to 148 °C |  | CC(C)(O)CC[C@H](C[C@H](O)[C@H](Cc1ccccc1F)NC(=O)c1cnc2ccccc2n1)C(N)=O [Example 9, Quinoxaline-2-carboxylic acid [4(R)-carbamoyl-1(S)-(2-fluoro-benzyl)-2(S),7-dihydroxy-7-methyl-octyl]-amide] |
| > 250 µg/mL | 155 to 158 °C |  | CC(C)(O)CC[C@H](C[C@H](O)[C@H](Cc1cccc2ccccc12)NC(=O)c1cnc2ccccc2n1)C(N)=O [Example 12, Quinoxaline-2-carboxylic acid (4(R)-carbamoyl-2(S),7-dihydroxy-7-methyl-1(S)-naphthalen-1-ylmethyl-octyl)-amide] |
| > 250 µg/mL | 130 to 131 °C |  | CC(C)(O)CC[C@H](C[C@H](O)[C@H](Cc1ccccc1F)NC(=O)c1cnc2ccccc2n1)C(=O)NO [Example 8, Quinoxaline-2-carboxylic acid [1(S)-(2-fluoro-benzyl)-2(S),7-dihydroxy-4(R)-hydroxycarbamoyl-7-methyl-octyl]-amide] |
|  |  | less than 5 μg/mL | CC(C)(F)CC[C@H](C[C@H](O)[C@H](Cc1ccccc1)NC(=O)c1cnc(Cl)c(Cl)c1)C(N)=O [Example 247] |

| SMILES | solubility at 20 min [1] | melting point | Solubility [2] |
| --- | --- | --- | --- |
| CC(C)(O)CC[C@H](C[C@H](O)[C@H](Cc1ccccc1)NC(=O)c1cnc2ccccc2n1)C(=O)NO [Example 6, Quinoxaline-2-carboxylic acid (1(S)-benzyl-2(S),7-dihydroxy-4(R)-hydroxycarbamoyl-7-methyl-octyl)-amide] | > 250 µg/mL | 108 to 110 °C |  |
| CC(C)(O)CC[C@H](C[C@H](O)[C@H](Cc1ccccc1)NC(=O)c1cnc2c(F)c(F)c(F)cc2c1)C(N)=O [Example 5, 6,7,8-Trifluoro-quinoline-3-carboxylic acid (1(S)-benzyl-4(R)-carbamoyl 2(S),7-dihydroxy-7-methyl-octyl)-amide] | > 250 µg/mL | 185 to 188 °C |  |
